IC50 data for 19 compounds are collected here from patent US9896445B2, “Heterocyclic inhibitors of ERK1 and ERK2 and their use in the treatment of cancer” (Asana Biosciences, LLC, priority 2015, dated 2018).

The target in one test is T1, ERK1 (Homo sapiens, UniProt P27361).
T1 construct: purchased Jubilant Biosys
The test can be described thus: ERK1 HTRF (biochemical) assay. The procedure:
ERK1 and ERK2 HTRF (Biochemical) Assays
These assays employed a homogeneous time resolved fluorescence (HTRF) technique. […] The plate was incubated at room temperature for 60 min with shaking. […] The IC50 values (half maximal inhibitory concentration values) were subsequently determined using a sigmoidal dose-response curve (variable slope) in GraphPad Prism® 5 software.

The target of the next test is T2, ERK2 (Homo sapiens, UniProt P28482).
T2 construct: purchased Jubilant Biosys
The test can be described thus: ERK2 HTRF (biochemical) assay. Summed up:
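Compounds were tested as half-log dilutions from 0.0005 to 10 uM in Tris pH 7.5/MgCl2 buffer, with a substrate mix of 1 uM biotin-MBP peptide and 24 uM ATP and an enzyme mix of 25 nM ERK2. Reaction ran 60 min at room temperature. Phospho-MBP was detected by HTRF (Eu-anti-phospho-MBP/SA-APC, 665/620 nm), and IC50 was fitted with a variable-slope sigmoidal curve.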

T2 sequence (P28482 whole entry): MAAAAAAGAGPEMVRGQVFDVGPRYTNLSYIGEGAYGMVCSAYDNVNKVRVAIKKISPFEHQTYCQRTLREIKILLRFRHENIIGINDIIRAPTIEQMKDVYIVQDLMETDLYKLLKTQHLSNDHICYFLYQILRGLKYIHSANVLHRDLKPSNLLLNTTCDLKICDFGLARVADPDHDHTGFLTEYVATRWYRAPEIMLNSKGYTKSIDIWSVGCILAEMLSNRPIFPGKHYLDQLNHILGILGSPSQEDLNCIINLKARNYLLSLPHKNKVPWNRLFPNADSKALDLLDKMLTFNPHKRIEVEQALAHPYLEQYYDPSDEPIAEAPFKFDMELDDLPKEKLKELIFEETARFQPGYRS
T1 sequence (P27361 whole entry): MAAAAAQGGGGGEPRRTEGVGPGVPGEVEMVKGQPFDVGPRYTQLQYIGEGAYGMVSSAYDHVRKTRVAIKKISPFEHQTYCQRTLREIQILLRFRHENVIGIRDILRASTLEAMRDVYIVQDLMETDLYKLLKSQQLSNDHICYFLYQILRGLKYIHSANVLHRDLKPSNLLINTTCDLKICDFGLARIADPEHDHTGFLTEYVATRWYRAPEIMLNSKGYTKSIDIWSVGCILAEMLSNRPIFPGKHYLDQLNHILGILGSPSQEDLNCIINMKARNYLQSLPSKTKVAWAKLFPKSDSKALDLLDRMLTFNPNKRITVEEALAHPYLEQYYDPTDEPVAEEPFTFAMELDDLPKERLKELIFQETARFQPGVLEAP

Consider `Cc1cnc(NC2CC=CCC2)nc1-n1cnc(C(=O)N[C@H](CN)c2cccc(Cl)c2)c1` (stereo partly drawn) [Example 292, N-((S)-2-amino-1-(3-chlorophenyl)-ethyl)-1-(2-(cyclohex-3-en-1-ylamino)-5-methyl-pyrimidin-4-yl)-1H-imidazole-4-carboxamide], for which the 50% inhibitory concentration (IC50) was below 50 nM on ERK1 (HTRF) and at most 50 nM against ERK2 (HTRF).
For `Cc1cnc(NC2CCOCC2)nc1-n1cnc(C(=O)NCc2ccccc2C(C)(C)O)c1` [Example 293, N-(2-(2-hydroxy-propan-2-yl)benzyl)-1-(5-methyl-2-((tetrahydro-2H-pyran-4-yl)amino)-pyrimidin-4-yl)-1H-imidazole-4-carboxamide], in that order: below 50 nM and at most 50 nM.
As to `Cc1cnc(NC2CCOCC2)nc1-n1cnc(C(=O)NCc2sccc2CN)c1` [Example 294, N-((3-(amino-methyl)thiophen-2-yl)methyl)-1-(5-methyl-2-((tetrahydro-2H-pyran-4-yl)amino)-pyrimidin-4-yl)-1H-imidazole-4-carboxamide], the half-inhibitory concentration (IC50) at ERK1 (HTRF) was below 50 nM; at ERK2 (HTRF) it was at most 50 nM.
The corresponding values for `Cc1cnc(NC2CCOCC2)nc1-n1cnc(C(=O)N[C@H](CO)c2cc(F)cc(Cl)c2)c1` [Example 295, (S)-N-(1-(3-chloro-5-fluorophenyl)-2-hydroxyethyl)-1-(5-methyl-2-((tetrahydro-2H-pyran-4-yl)amino)-pyrimidin-4-yl)-1H-imidazole-4-carboxamide] are below 50 nM and at most 50 nM.
The corresponding values for `Cc1cnc(NC2CCN(C)CC2)nc1-n1cnc(C(=O)N[C@H](CO)c2cccc(Cl)c2)c1` [Example 296, (S)-N-(1-(3-chlorophenyl)-2-hydroxyethyl)-1-(5-methyl-2-((1-methylpiperidin-4-yl)amino)-pyrimidin-4-yl)-1H-imidazole-4-carboxamide] are below 50 nM and at most 50 nM.
For `Cc1cnc(NC2CCOCC2)nc1-n1cnc(C(=O)N[C@H](CNCc2ccc[nH]2)c2cccc(Cl)c2)c1` [Example 306, (S)-N-(2-(((1H-pyrrol-2-yl)-methyl)amino)-1-(3-chlorophenyl)-ethyl)-1-(5-methyl-2-((tetrahydro-2H-pyran-4-yl)amino)-pyrimidin-4-yl)-1H-imidazole-4-carboxamide], in that order: below 50 nM and at most 50 nM.
`Cc1cnc(NC2CCOCC2)nc1-n1cnc(C(=O)NCc2cccc(Cl)n2)c1` [Example 307, N-((6-chloro-pyridin-2-yl)methyl)-1-(5-methyl-2-((tetrahydro-2H-pyran-4-yl)amino)-pyrimidin-4-yl)-1H-imidazole-4-carboxamide]: the figures for the IC50 against ERK1 (HTRF) and at ERK2 (HTRF) were below 50 nM and at most 50 nM, respectively.
For `Cc1cnc(NC2CCOCC2)nc1-n1cnc(C(=O)N[C@H](CNC2CCOCC2)c2cccc(Cl)c2)c1` [Example 308, (S)-N-(1-(3-chlorophenyl)-2-((tetrahydro-2H-pyran-4-yl)amino)-ethyl)-1-(5-methyl-2-((tetrahydro-2H-pyran-4-yl)amino)-pyrimidin-4-yl)-1H-imidazole-4-carbox amide], the half-inhibitory concentration (IC50) on ERK1 (HTRF biochemical assay) is below 50 nM; on ERK2 (HTRF biochemical assay), at most 50 nM.
The corresponding values for `Cc1cnc(NC2CCOCC2)nc1-n1cnc(C(=O)NCc2cccc(Cl)c2F)c1` [Example 309, N-(3-chloro-2-fluorobenzyl)-1-(5-methyl-2-((tetrahydro-2H-pyran-4-yl)amino)-pyrimidin-4-yl)-1H-imidazole-4-carboxamide] are below 50 nM and at most 50 nM.
For `Cc1cnc(N[C@H]2CCOC2)nc1-n1cnc(C(=O)NCc2cccc(C#N)c2)c1` [Example 310, (S)-N-(3-cyano-benzyl)-1-(5-methyl-2-((tetrahydrofuran-3-yl)amino)-pyrimidin-4-yl)-1H-imidazole-4-carboxamide], in that order: 100 to 500 nM and at most 50 nM.
The corresponding values for `Cc1cnc(N[C@H]2CCOC2)nc1-n1cnc(C(=O)NCc2cccc(C(F)(F)F)c2)c1` [Example 311, (S)-1-(5-methyl-2-((tetrahydrofuran-3-yl)amino)-pyrimidin-4-yl)-N-(3-(trifluoro-methyl)benzyl)-1H-imidazole-4-carboxamide] are 50 to 100 nM and at most 50 nM.
For the compound `Cc1cnc(NC2CCOCC2)nc1-n1cnc(C(=O)NC(C(N)=O)c2cccc(Cl)c2)c1` (centres unmarked) [Example 312, N-(2-amino-1-(3-chlorophenyl)-2-oxoethyl)-1-(5-methyl-2-((tetrahydro-2H-pyran-4-yl)amino)-pyrimidin-4-yl)-1H-imidazole-4-carboxamide], the IC50 on ERK1 (HTRF biochemical assay) is below 50 nM; against ERK2 (HTRF biochemical assay) it was at most 50 nM.
For `Cc1cnc(N[C@H]2CCOC2)nc1-n1cnc(C(=O)NCc2cc(Cl)cc(Cl)c2)c1` [Example 313, (S)-N-(3,5-dichloro-benzyl)-1-(5-methyl-2-((tetrahydrofuran-3-yl)amino)-pyrimidin-4-yl)-1H-imidazole-4-carboxamide], in that order: below 50 nM and at most 50 nM.
The corresponding values for `Cc1cnc(N[C@H]2CCOC2)nc1-n1cnc(C(=O)NCc2ccc(Cl)c(Cl)c2)c1` [Example 314, (S)-N-(3,4-dichlorobenzyl)-1-(5-methyl-2-((tetrahydrofuran-3-yl)amino)pyrimidin-4-yl)-1H-imidazole-4-carboxamide] are below 50 nM and at most 50 nM.
For `Cc1cnc(N[C@H]2CCOC2)nc1-n1cnc(C(=O)NCc2cccc(Cl)c2)c1` [Example 318, (S)-N-(3-chloro-benzyl)-1-(5-methyl-2-((tetrahydrofuran-3-yl)amino)-pyrimidin-4-yl)-1H-imidazole-4-carboxamide], in that order: below 50 nM and at most 50 nM.
In the case of `Cc1cnc(NC2CCOCC2)nc1-n1cnc(C(=O)N[C@H](CN(C)C)c2cccc(Cl)c2)c1` [Example 320, (S)-N-(1-(3-chlorophenyl)-2-(dimethylamino)-ethyl)-1-(5-methyl-2-((tetrahydro-2H-pyran-4-yl)amino)-pyrimidin-4-yl)-1H-imidazole-4-carboxamide], the figures for the IC50 at ERK1 (HTRF biochemical assay) and at ERK2 (HTRF biochemical assay) were below 50 nM and at most 50 nM, respectively.
Regarding `CNC[C@@H](NC(=O)c1cn(-c2nc(NC3CCOCC3)ncc2C)cn1)c1cccc(Cl)c1` [Example 326, (S)-N-(1-(3-chlorophenyl)-2-(methylamino)ethyl)-1-(5-methyl-2-((tetrahydro-2H-pyran-4-yl)amino)-pyrimidin-4-yl)-1H-imidazole-4-carboxamide], the IC50 at ERK1 (HTRF biochemical assay) was below 50 nM; against ERK2 (HTRF biochemical assay) it was at most 50 nM.
The corresponding values for `Cc1cnc(NC2CCOCC2)nc1-n1cnc(C(=O)NCc2nc(Cl)sc2C)c1` [Example 328, N-((2-chloro-5-methylthiazol-4-yl)methyl)-1-(5-methyl-2-((tetrahydro-2H-pyran-4-yl)amino)-pyrimidin-4-yl)-1H-imidazole-4-carboxamide] are below 50 nM and at most 50 nM.
On to `Cc1cnc(Nc2ccc(F)cc2Cl)nc1-n1cnc(C(=O)NCc2cccc(Cl)c2CO)c1` [Example 329, N-(3-chloro-2-(hydroxymethyl)-benzyl)-1-(2-((2-chloro-4-fluoro-phenyl)amino)-5-methylpyrimidin-4-yl)-1H-imidazole-4-carboxamide], for which the IC50 against ERK1 (HTRF biochemical assay) was below 50 nM; against ERK2 (HTRF biochemical assay), at most 50 nM.
